For orientation: mass density means the mass of a sample divided by its volume.

Where “and” joins values, the source holds several entries; their conditions need not be identical. Equal entries are not always repeated. Numbers after ± are expanded uncertainties.

From the NIST ThermoML archive (doi:10.1016/j.jct.2003.09.005) come the findings set out here.

For data set [1] the following is noted: 298.15 K; 101.33 kPa; Liquid.
Data set [2] in a line: xn = mol fraction of the nth substance listed. To be noted: 298.15 K, 101.33 kPa, Liquid, Vibrating tube method.

As to `COCCOC` [1,2-dimethoxyethane], the mass density in data set [1] is recorded as 861.43 ± 0.56 kg/m3.

Take `CC#N` [acetonitrile]: the mass density in data set [1] stood at 776.69 ± 0.62 kg/m3. As to `CCOC(C)=O` [ethyl acetate], the mass density in data set [1] was 894.51 ± 0.54 kg/m3.

In the case of `O=C1OCCO1` [ethylene carbonate] + C1CCOC1, the mass density in data set [2] (x2 = 0.4631) is 1110.32 ± 0.57 kg/m3 and 1109.98 ± 0.57 kg/m3 and 1109.85 ± 0.57 kg/m3. Regarding `O=C1OCCO1` [ethylene carbonate] + CC#N, the mass density in data set [2] (x2 = 0.5533) was 1070.54 ± 0.55 kg/m3 and 1071.16 ± 0.54 kg/m3. For `O=C1OCCO1` [ethylene carbonate] + CCOC(C)=O, in data set [2] (x2 = 0.4577), the mass density is 1118.46 ± 0.58 kg/m3 [middle of 4 runs]. In the case of `O=C1OCCO1` [ethylene carbonate] + COCCOC, the mass density in data set [2] (x2 = 0.4158) was 1099.62 ± 0.57 kg/m3 and 1099.78 ± 0.56 kg/m3 and 1100.01 ± 0.56 kg/m3. Consider `C1CCOC1` [tetrahydrofuran], for which, in data set [1], the mass density came out at 882.01 ± 0.54 kg/m3.
